Patent US12649733B2, “3,6-diamino-pyridazin-3-yl derivatives, pharmaceutical compositions containing them and their uses as pro-apoptotic agents” (LES LABORATOIRES SERVIER, priority 2019, dated 2026)

Tests used:
BCLXL = BCLXL (Homo sapiens, UniProt Q07817, V10N/V9A); assay: AlphaLISA assay (BIM peptide displacement); assay type: binding; conditions: 20 pM protein, 1 nM peptide
Method: AlphaLISA assay measures an increase in alpha signal upon binding biotinylated GST(1-218)-(FACTOR_XA)-hs ? (2-209)(SEQ ID:02—GST UniProtKB® primary accession number P08515 and BCLXL UniProtKB® primary accession number Q07817-1) coupled to a Streptavidin labeled Alpha donor bead to N-terminally labeled peptide derived from BIM (Fluorescein-betaAla-Ahx-SEQID:05, wherein SEQ ID:05 is […]) coupled to an Anti-FTIC AlphaLISA acceptor bead.
GST(1-218)(FACTOR_XA)-hs ? (2-209) was biotinylated in 50 mM phosphate buffer using a 20 fold excess of EZ Link NHS-LC-Biotin (thermoFisher catalogue number 21336) overnight at 4° C.
The addition of a compound which binds competitively to the same site as the peptide will result in an decrease in the Alpha signal of the available donor bead-protein-peptide-acceptor bead complex due to displacement of the peptide.
An 11-point serial dilution of each compound was prepared in DMSO, the final buffer conditions were 10 mM 4-(2-hydroxyethyl)-1-piperazineethanesulfonic acid [HEPES], 150 mM NaCl, 0.05% Tween 20, pH 7.4 and 4% DMSO. The final protein concentration in the assay was 20 pM with the peptide present at 1 nM). Alpha beads were used at a final concentration of 5 ug/mL. The experiments were incubated for overnight at 23° C. after acceptor bead addition. Finally the donor bead is added and incubated for 2 hours at 23° C. before Alpha signal measured on a Biotek Synergy2 plate reader (Excitation 680 nm, emission 615 nm).

Bcl-xL protein = target: T1, Bcl-xL protein (Homo sapiens, UniProt Q07817, N197C); assay: Fluorescence quenching assay (PUMA peptide displacement); assay type: binding; conditions: 1 nM protein, 400 nM peptide, 2 hours at 23° C.; KI determined from IC50
T1 construct: (2-197)[N197C]; His-His (two His8 stretches joined by a Gly/Ala/Ser/Thr linker)
Procedure, shortened: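 Displacement of a TQ5WS-quencher-labelled PUMA peptide (400 nM) from Cy5-labelled His-tagged Bcl-xL 2-197 N197C (1 nM) raises fluorescence. An 11-point compound dilution was incubated 2 h at 23 °C in HEPES 10 mM, NaCl 150 mM, 0.05% Tween 20, pH 7.4, 5% DMSO. Fluorescence was read at Ex 620/Em 680 nm, and KI was derived from IC50.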

H146 cells = assay: H146 cell viability, MTT assay; assay type: cell-based; conditions: Homo sapiens, NCI-H146, 48 h, 48 h exposure
Procedure, shortened: (§1)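 Cells grown in RPMI 1640 with 10% heat-inactivated FBS at 37° C, 5% CO2, exposed 48 h to nine 3.16-fold serial compound dilutions in triplicate. MTT added for 4 h, SDS/HCl solubilisation overnight, absorbance at 540 nm; IC50 by four-parameter fit.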

MOLT-4 cells = assay: MOLT-4 cell viability, MTT assay; assay type: cell-based; conditions: Homo sapiens, MOLT-4, 48 h, 48 h exposure
Procedure, shortened: as §1

T1 sequence (Q07817 2-197 N197C): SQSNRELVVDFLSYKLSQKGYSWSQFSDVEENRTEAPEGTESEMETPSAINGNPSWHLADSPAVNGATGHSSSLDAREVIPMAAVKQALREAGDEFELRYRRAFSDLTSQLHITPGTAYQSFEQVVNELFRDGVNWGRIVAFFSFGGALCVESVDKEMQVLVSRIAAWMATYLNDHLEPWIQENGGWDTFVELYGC
Chain of BCLXL (Q07817 with tags, fused parts or gaps V9A/V10N): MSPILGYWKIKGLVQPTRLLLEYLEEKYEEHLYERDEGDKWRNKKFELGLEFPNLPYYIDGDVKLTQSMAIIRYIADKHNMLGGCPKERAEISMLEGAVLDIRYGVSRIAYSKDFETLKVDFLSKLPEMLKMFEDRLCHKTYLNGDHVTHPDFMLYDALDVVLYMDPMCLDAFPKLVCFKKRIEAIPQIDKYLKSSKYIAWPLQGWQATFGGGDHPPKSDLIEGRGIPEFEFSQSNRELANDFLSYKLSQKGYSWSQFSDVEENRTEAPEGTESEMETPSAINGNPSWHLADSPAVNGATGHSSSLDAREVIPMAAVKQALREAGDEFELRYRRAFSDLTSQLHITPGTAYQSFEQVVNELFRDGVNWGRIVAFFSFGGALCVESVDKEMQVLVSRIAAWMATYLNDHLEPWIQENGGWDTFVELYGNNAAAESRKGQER

SMILES | IC50 (BCLXL) [nM] | Ki (Bcl-xL protein) [nM] | IC50 (H146 cells) [nM] | IC50 (MOLT-4 cells) [nM]
Cc1cc(N(CCCCO)c2nc(C(=O)O)cs2)nnc1Nc1nc2ccccc2s1 [Example 110, 2-[[6-(1,3-Benzothiazol-2-ylamino)-5-methyl-pyridazin-3-yl]-(4-hydroxybutyl)amino]thiazole-4-carboxylic acid] | 0.48 |  |  | 
COC(CO)CN(c1cc(C)c(Nc2nc3ccccc3s2)nn1)c1nc(C(=O)O)cs1 (stereo not shown) [Example 111, 2-[[6-(1,3-Benzothiazol-2-ylamino)-5-methyl-pyridazin-3-yl]-(3-hydroxy-2-methoxy-propyl)amino]thiazole-4-carboxylic acid] | 27 |  |  | 
COc1ccc(CN(C)CC#Cc2ccc(OCCCc3sc(N(CCC(O)CO)c4cc(C)c(Nc5nc6ccccc6s5)nn4)nc3C(=O)O)c(F)c2)cc1 (stereo not shown) [Example 121, 2-[[6-(1,3-Benzothiazol-2-ylamino)-5-methyl-pyridazin-3-yl]-(3,4-dihydroxybutyl)amino]-5-[3-[2-fluoro-4-[3-[(4-methoxyphenyl)methyl-methyl-amino]prop-1-ynyl]phenoxy]propyl]thiazole-4-carboxylic acid] | 0.058 |  |  | 
Cc1cc(N(CCCCCO)c2nc(C(=O)O)cs2)nnc1Nc1nc2ccccc2s1 [Example 125, 2-[[6-(1,3-Benzothiazol-2-ylamino)-5-methyl-pyridazin-3-yl]-(5-hydroxypentyl)amino]thiazole-4-carboxylic acid] | 8.6 |  |  | 
Cc1cc(N(CCCC(O)CN2CCOCC2)c2nc(C(=O)O)cs2)nnc1Nc1nc2ccccc2s1 (stereo not shown) [Example 131, 2-[[6-(1,3-Benzothiazol-2-ylamino)-5-methyl-pyridazin-3-yl]-(4-hydroxy-5-morpholino-pentyl)amino]thiazole-4-carboxylic acid] | 2.7 |  |  | 
COCC(O)CCCN(c1cc(C)c(Nc2nc3ccccc3s2)nn1)c1nc(C(=O)O)cs1 (stereo not shown) [Example 132, 2-[[6-(1,3-Benzothiazol-2-ylamino)-5-methyl-pyridazin-3-yl]-(4-hydroxy-5-methoxy-pentyl)amino]thiazole-4-carboxylic acid] | 7.7 |  |  | 
COC(CO)CCCN(c1cc(C)c(Nc2nc3ccccc3s2)nn1)c1nc(C(=O)O)cs1 (stereo not shown) [Example 133, 2-[[6-(1,3-Benzothiazol-2-ylamino)-5-methyl-pyridazin-3-yl]-(5hydroxy-4-methoxy-pentyl)amino]thiazole-4-carboxylic acid] | 8.9 |  |  | 
Cc1cc(N(C)c2nc(C(=O)O)c(C3CN(C(=O)c4ccccc4)C3)s2)nnc1Nc1nc2ccccc2s1 [Example 136, 5-(1-Benzoylazetidin-3-yl)-2-({6-[(1,3-benzothiazol-2-yl)amino]-5-methylpyridazin-3-yl}(methyl)amino]-1,3-thiazole-4-carboxylic acid] | 7.7 |  |  | 
Cc1cc(N(CCCC(O)CN(C)C)c2nc(C(=O)O)cs2)nnc1Nc1nc2ccccc2s1 (stereo not shown) [Example 143, 2-[[6-(1,3-Benzothiazol-2-ylamino)-5-methyl-pyridazin-3-yl]-[5-(dimethylamino)-4-hydroxy-pentyl]amino]thiazole-4-carboxylic acid] | 22 |  |  | 
Cc1cc(N(C)c2nc(C(=O)O)c(CCCOc3ccc(C#CCNCCN(C)C)cc3F)s2)nnc1Nc1nc2ccccc2s1 [Example 223, 2-[[6-(1,3-Benzothiazol-2-ylamino)-5-methyl-pyridazin-3-yl]-methyl-amino]-5-[3-[4-[3-[2-(dimethylamino)ethylamino]prop-1-ynyl]-2-fluoro-phenoxy]propyl]thiazole-4-carboxylic acid] |  | 0.0018 | 7.46 | 3.13
Cc1cc(N(C)c2nc(C(=O)O)c(CCCOc3ccc(C#CCN(C)C)cc3)s2)nnc1Nc1nc2ccccc2s1 [Example 233, 2-[[6-(1,3-Benzothiazol-2-ylamino)-5-methyl-pyridazin-3-yl]-methyl-amino]-5-[3-[4-[3-(dimethylamino)prop-1-ynyl]phenoxy]propyl]thiazole-4-carboxylic acid] |  | 0.0043 | 2.55 | 0.879
Cc1cc(N(C)c2nc(C(=O)O)c(CCCOc3ccc(C45CC(CN(C)C)(C4)C5)cc3)s2)nnc1Nc1nc2ccccc2s1 [Example 234, 2-[[6-(1,3-Benzothiazol-2-ylamino)-5-methyl-pyridazin-3-yl]-methyl-amino]-5-[3-[4-[1-[(dimethylamino)methyl]-3-bicyclo[1.1.1]pentanyl]phenoxy]propyl]thiazole-4-carboxylic acid] |  | 0.0016 | 15 | 3.8

Now from value to molecule:

IC50 (BCLXL) [nM] | Ki (Bcl-xL protein) [nM] | IC50 (H146 cells) [nM] | IC50 (MOLT-4 cells) [nM] | SMILES
0.023 |  |  |  | Cc1cc(N(CCCO)c2nc(C(=O)O)c(CCCOc3ccc(C#CCN(C)C)cc3F)s2)nnc1Nc1nc2ccccc2s1 [Example 126, 2-[[6-(1,3-Benzothiazol-2-ylamino)-5-methyl-pyridazin-3-yl]-(3-hydroxypropyl)amino]-5-[3-[4-[3-(dimethylamino)prop-1-ynyl]-2-fluoro-phenoxy]propyl]thiazole-4-carboxylic acid]
 | 0.002 | 1160 | 2180 | CNCC#Cc1ccc(OCCCc2sc(N(CCCCCC[N+](C)(C)C)c3cc(C)c(Nc4nc5ccccc5s4)nn3)nc2C(=O)[O-])c(F)c1 [Example 224, 2-[[6-(1,3-Benzothiazol-2-ylamino)-5-methyl-pyridazin-3-yl]-[6-(trimethylammonio)hexyl]amino]-5-[3-[2-fluoro-4-[3-(methylamino)prop-1-ynyl]phenoxy]propyl]thiazole-4-carboxylate]
 | 0.0035 | 351 | 1080 | Cc1cc(N(CCCCC[N+](C)(C)CCCO)c2nc(C(=O)[O-])c(CCCOc3ccc(C#CCN(C)C)cc3F)s2)nnc1Nc1nc2ccccc2s1 [Example 225, 2-[[6-(1,3-Benzothiazol-2-ylamino)-5-methyl-pyridazin-3-yl]-[5-[3-hydroxypropyl(dimethyl)ammonio]pentyl]amino]-5-[3-[4-[3-(dimethylamino)prop-1-ynyl]-2-fluoro-phenoxy]propyl]thiazole-4-carboxylate]
 | 0.0014 | 437 | 1640 | CNCC#Cc1ccc(OCCCc2sc(N(CCCCC[N+](C)(C)CCO)c3cc(C)c(Nc4nc5ccccc5s4)nn3)nc2C(=O)[O-])c(F)c1 [Example 229, 2-[[6-(1,3-Benzothiazol-2-ylamino)-5-methyl-pyridazin-3-yl]-[5-[2-hydroxyethyl(dimethyl)ammonio]pentyl]amino]-5-[3-[2-fluoro-4-[3-(methylamino)prop-1-ynyl]phenoxy]propyl]thiazole-4-carboxylate]
 | 0.0014 | 1380 | 2180 | CNCC#Cc1ccc(OCCCc2sc(N(CCCCC[N+](C)(C)CCCO)c3cc(C)c(Nc4nc5ccccc5s4)nn3)nc2C(=O)[O-])c(F)c1 [Example 230, 2-[[6-(1,3-Benzothiazol-2-ylamino)-5-methyl-pyridazin-3-yl]-[5-[3-hydroxypropyl(dimethyl)ammonio]pentyl]amino]-5-[3-[2-fluoro-4-[3-(methylamino)prop-1-ynyl]phenoxy]propyl]thiazole-4-carboxylate]
 | 0.0013 | 1610 | 1190 | CNCC#Cc1ccc(OCCCc2sc(N(CCCCC[N+](C)(C)CC(=O)O)c3cc(C)c(Nc4nc5ccccc5s4)nn3)nc2C(=O)[O-])c(F)c1 [Example 231, 2-[[6-(1,3-Benzothiazol-2-ylamino)-5-methyl-pyridazin-3-yl]-[5-[carboxymethyl(dimethyl)ammonio]pentyl]amino]-5-[3-[2-fluoro-4-[3-(methylamino)prop-1-ynyl]phenoxy]propyl]thiazole-4-carboxylate]
 | 0.0011 | 413 | 413 | CNCC#Cc1ccc(OCCCc2sc(N(CCC[N+](C)(C)CCCS(=O)(=O)[O-])c3cc(C)c(Nc4nc5ccccc5s4)nn3)nc2C(=O)O)c(F)c1 [Example 235, 3-[3-[[6-(1,3-Benzothiazol-2-ylamino)-5-methyl-pyridazin-3-yl]-[4-carboxy-5-[3-[2-fluoro-4-[3-(methylamino)prop-1-ynyl]phenoxy]propyl]thiazol-2-yl]amino]propyl-dimethyl-ammonio]propane-1-sulfonate]
